In the assay the target is Alpha-glucosidase MAL62 (Saccharomyces cerevisiae) (UniProt P07265). Briefly: Inhibition of baker's yeast alpha-glucosidase using p-nitrophenyl-alpha-D-glucopyranoside as substrate by spectrophotometry.
Chain of Alpha-glucosidase MAL62 (Saccharomyces cerevisiae) (P07265 whole entry): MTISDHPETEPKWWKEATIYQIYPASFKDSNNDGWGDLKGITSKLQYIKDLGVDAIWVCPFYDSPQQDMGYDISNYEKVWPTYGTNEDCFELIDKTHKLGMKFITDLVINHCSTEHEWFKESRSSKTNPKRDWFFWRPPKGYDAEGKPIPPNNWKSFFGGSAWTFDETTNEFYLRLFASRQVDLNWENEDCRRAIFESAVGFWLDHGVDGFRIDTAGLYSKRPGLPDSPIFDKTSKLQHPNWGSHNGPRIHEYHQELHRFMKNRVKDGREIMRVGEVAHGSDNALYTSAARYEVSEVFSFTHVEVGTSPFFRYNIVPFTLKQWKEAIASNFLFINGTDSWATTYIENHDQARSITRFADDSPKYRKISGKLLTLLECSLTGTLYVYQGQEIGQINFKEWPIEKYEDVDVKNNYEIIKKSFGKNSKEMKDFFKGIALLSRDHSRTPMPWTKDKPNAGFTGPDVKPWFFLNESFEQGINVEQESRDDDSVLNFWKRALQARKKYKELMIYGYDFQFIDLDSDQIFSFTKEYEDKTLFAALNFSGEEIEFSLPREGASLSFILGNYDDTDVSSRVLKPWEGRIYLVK
On to `COc1ccc(/C=C/C(=O)O)cc1`, for which the logIC50 stood at 1.6.
`COc1cccc(/C=C/C(=O)O)c1`: the logIC50 was determined as 2.76.
With `O=C(OC1Cc2c(O)cc(O)cc2OC1c1cc(O)c(O)c(O)c1)c1cc(O)c(O)c(O)c1` (centres undefined) the figure was 0.301.
For the compound `C=CC(C)(C)c1c(O)cc(O)c2c(=O)c3oc4c5c(c(OCC=C(C)C)cc4c3oc12)OC(C)(C)C=C5`, the logIC50 is 1.44.
In the case of `C=C(C)C(CC=C(C)C)Cc1c(O)cc(O)c2c1OC(c1ccccc1O)CC2=O` (centres undefined), the logIC50 stood at 1.65.
In the case of `CC1(C)C=Cc2cc(C(=O)/C=C/c3ccc(O)c(O)c3)c(O)cc2O1`, the logIC50 turned out to be 1.28.
Turning to `CC(C)=CCc1cc(C(=O)/C=C/c2ccc(O)cc2)c(O)cc1O`, the logIC50 worked out at 1.04.
`C=CC(C)(C)c1c(O)cc(O)c2c(=O)c3oc4c(CC=C(C)C)c(O)c(OCC=C(C)C)cc4c3oc12` returned a logIC50 of 1.52.
`O=C(O)c1cc(O)c(O)c(O)c1` registered a logIC50 of 0.716.
With `CC1(C)C=Cc2cc(C(=O)/C=C/c3ccc(O)cc3)c(O)cc2O1` the figure was 1.09; with `CC(C)=CCc1cc(C(=O)/C=C/c2ccc(O)c(O)c2)c(O)cc1O`, 0.724.
With `O=c1c(O)c(-c2cc(O)c(O)c(O)c2)oc2cc(O)cc(O)c12` the figure was 0.699.
Regarding `COc1ccc([C@@H]2CC(=O)c3c(O)cc(O)cc3O2)cc1O`, the logIC50 stood at 2.18.
As for `OC[C@H]1OC(OC2=C(c3cc(O)c(O)c(O)c3)Oc3cc(O)cc(O)c3C2)[C@@H](O)[C@@H](O)[C@@H]1O` (some centres undefined), the figure is 1.48.
As for `CCOC(=O)/C=C/c1ccc(OC)cc1`, the figure is 1.7.
`O=C(O)/C=C/c1ccc(Oc2ccccc2)cc1`: the logIC50 was 2.64.
With `CC(C)=CCc1cc(C2CCc3ccc(O)cc3O2)c(CC=C(C)C)c(O)c1O` (centres undefined) the figure was 1.08.
As for `CC(C)=CCc1cc(C2CCc3ccc(O)cc3O2)cc(O)c1O` (centres undefined), the figure is 1.88; as for `O=c1c(O)c(-c2ccc(O)cc2O)oc2cc(O)cc(O)c12`, 1.6.
As for `CC(C)=CCc1c(C2CCc3ccc(O)cc3O2)cc2c(c1O)OC(C)(C)C=C2` (centres undefined), the figure is 1.42; as for `OC[C@H]1OC(OC2=C(c3ccc(O)c(O)c3)Oc3cc(O)cc(O)c3C2)[C@@H](O)[C@@H](O)[C@@H]1O` (some centres undefined), 1.3; as for `O=C(O)/C=C/c1ccc(Cl)cc1`, 2.59.
On to `C=C(C)C(CC=C(C)C)Cc1c(O)cc(OC)c2c1OC(c1ccc(O)cc1O)CC2=O` (centres undefined), for which the logIC50 was 1.83.
As for `O=c1cc(-c2ccc(O)c(O)c2)oc2cc(O)cc(O)c12`, the figure is 1.32; as for `O=c1c(O)c(-c2ccc(O)c(O)c2)oc2cc(O)ccc12`, 1.11.
With `O=C(O)/C=C/c1ccc(F)cc1` the figure was 2.43.
`Oc1cc(O)c2cc(O)c(-c3ccc(O)c(O)c3)[o+]c2c1` gave a logIC50 of 0.602.
With `O=c1c(-c2ccc(O)cc2)coc2cc(O)cc(O)c12` the figure was 0.845; with `Oc1cc(O)c2c(c1)OC(c1cc(O)c(O)c(O)c1)C(O)C2` (centres undefined), 1.88.
With `O=C(O)/C=C/c1ccc(O)cc1` the figure was 2.3; with `O=c1c(O)c(-c2ccc(O)c(O)c2)oc2cc(O)cc(O)c12`, 0.845.
With `C=C(C)C(CC=C(C)C)Cc1c(O)cc(OC)c2c1OC(c1ccc(OC)cc1O)CC2=O` (centres undefined) the figure was 2.19; with `O=C(O)/C=C/c1cccc(O)c1`, 3.1.
For the compound `COc1cc(O)c(C(C)=C(C)C)c2c1C(=O)CC(c1ccc(O)cc1)O2` (centres undefined), the logIC50 was found to be 2.55.
In turn, `O=c1c(-c2ccc(O)cc2)coc2cc(O)ccc12` had a logIC50 of 1.15.
The compound `C=C(C)C(CCC(C)(C)O)Cc1c(O)cc(OC)c2c1OC(c1ccc(O)cc1O)CC2=O` (centres undefined) had a logIC50 of 2.25.
As for `Oc1cc(O)c2c(c1)OC(c1ccc(O)c(O)c1)C(O)C2` (centres undefined), the figure is 2.11; as for `O=C1C[C@@H](c2ccc(O)cc2)Oc2cc(O)cc(O)c21`, 1.88; as for `CC(C)=CCc1cc(-c2oc3cc(O)c(CC=C(C)C)c(O)c3c(=O)c2O)cc(O)c1O`, 0.322.
As for `C=CC(C)(C)c1cc2c(cc1O)OC(c1cc(O)c(O)c(CC=C(C)C)c1C/C=C\C)CC2` (centres undefined), the logIC50 worked out at 1.02.
On to `O=c1c(O)c(-c2ccc(O)cc2)oc2cc(O)cc(O)c12`, for which the logIC50 is 1.08.
With `C=C(C)C(CC=C(C)C)Cc1c(O)cc(O)c2c1OC(c1ccc(O)cc1O)CC2=O` (centres undefined) the figure was 1.57.
With `C=CC(C)(C)c1c(O)cc(O)c2c(=O)c(O)c(-c3cc(O)c(O)c(CC=C(C)C)c3)oc12` the figure was 0.556.
With `COC(=O)c1cc(O)c(O)c(O)c1` the figure was 1.06.

These data come from ChEMBL document CHEMBL3045086, “Two-dimensional quantitative structureactivity relationship study on polyphenols as inhibitors of -glucosidase” (Med Chem Res, 2012).
